Measured values from patent US20210085789A1, “PHARMACEUTICAL COMPOSITION FOR CANCER TREATMENT” (SEOUL NATIONAL UNIVERSITY R&DB FOUNDATION, priority 2017, published 2021).

Tested on: HeLa cells
Experiment: CCK-8 cell viability after light irradiation (dose-dependent PDT effect)
Assay type: cell-based, human
Settings: 660 nm LED 30 mW cm−2 for 10 minutes
Protocol: In order to determine viability of cells treated with FA-MnO2, HeLa cells (1×10^4 cells/well) were prepared in three (3) 96-well plates for 24 hours, and cultured with FA-MnO2 at different concentrations as well as a complete medium. After incubation for 12 hours, the cells were gently washed with 1×PBS and CCK-8 analysis solution as well as a serum-free medium were added thereto for one hour, followed by measuring absorbance at wavelengths of 450 nm and 670 nm using a micro-plate reader (Molecular Devices, Inc., USA).
Next, in order to determine quantitative cell viability associated with photodynamic effects of FA-MnO2/ZnPc, HeLa cells (1×10^4 cells/well) were seeded on a 96-well plate, incubated for 24 hours, and then, treated with FA-MnO2/ZnPc and ZnPc at various concentrations. After the incubation for 12 hours, each well was irradiated with 660 nm LED (Mikwang Electronics, Korea) at 30 mW cm^−2 for 10 minutes. After additional incubation in a serum-containing medium for 12 hours, analysis of CCK-8 cell vitality was assessed in the same manner as described above.

IC50: 115.1 ± 3.4 µg/mL
Compound: [Zn+2].c1ccc2c(c1)-c1nc-2nc2[n-]c(nc3nc([n-]c4nc(n1)-c1ccccc1-4)-c1ccccc1-3)c1ccccc21 [ZnPc, zinc phthalocyanine]
